These results are taken from patent US12116358B2, “Substituted indoles and methods of use thereof” (EPIZYME, INC., priority 2018, dated 2024).

Some results are limits rather than exact numbers.

For one test, the system named is H3K36me3 in A549 cells. As to the kind of experiment: In-Cell Western (ICW) assay of SETD2 inhibitors (A549 assay). Type of test: cell-based, human. Particulars: Homo sapiens; A549 cells; read-out: SETD2 A549. Summed up:
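H3K36me3 In-Cell Western: cells exposed to compound for 3 days at 4,000 cells/well, 37° C. DRAQ5 (1:1000) marked cell number, with 700/800-channel Licor read-out.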
For `Cc1cccnc1C(NC(=O)c1cc2cccc(Cc3ccn[nH]3)c2[nH]1)C1CC1` (stereo not shown) [compound 618], the IC50 was above 25000 nM.

For `CNC(=O)CCc1cccc(NC(=O)c2cc3c(F)ccc(C)c3[nH]2)c1` [compound 293], the IC50 came out at 1100 nM.

With `Cc1ccc(F)c2cc(C(=O)N[C@@H]3CCC[C@@H](N4CCC5(CC4)CNC(=O)N5)C3)[nH]c12` [compound 941], the IC50 is above 2000 nM.

Take `CC(=O)N1CCN(C[C@@H]2CCC[C@H](NC(=O)c3cc4c(F)ccc(C)c4[nH]3)C2)CC1` [compound 1077]: the IC50 is above 2000 nM.

For the compound `CC(=O)N1CCN([C@H]2CCC[C@@H](NC(=O)c3cc4c(F)ccc(C)c4[nH]3)C2)C2(CC2)C1` [compound 1024], the IC50 stood at 60 nM.

As for `Cc1cc(C(=O)N2CCNCC2)ccc1C(NC(=O)c1cc2cccc(C)c2[nH]1)C1CC1` (stereo not shown) [compound 577], the IC50 was above 25000 nM.

On to `CCN(CC)CCC(=O)N[C@H]1CC[C@H](NC(=O)c2cc3cccc(C)c3[nH]2)CC1` [compound 589], for which the IC50 is above 25000 nM.

Consider `Cc1ccc(F)c2cc(C(=O)N[C@@H]3CCC[C@H](N4CCN(C5CCOC5)CC4)C3)[nH]c12` (stereo partly shown) [compound 924], for which the IC50 was 600 nM.

With `Cc1ccc(F)c2cc(C(=O)Nc3cc(C#N)cc(N4CCC(N(C)C)CC4)c3)[nH]c12` [compound 345], the IC50 turned out to be 1800 nM.

With `CC(=O)N1CCN([C@@H]2CCC[C@@H](NC(=O)c3cc4c(F)ccc(C)c4[nH]3)C2)C[C@H]1CO` [compound 1076], the IC50 is 1700 nM.

`Cc1ccc(F)c2cc(C(=O)Nc3cccc(N4CCC(NCc5cnc[nH]5)CC4)c3)[nH]c12` [compound 433]: the IC50 was determined as 4600 nM.

Consider `Cc1ccc(F)c2cc(C(=O)Nc3cccc(N4C[C@@H](O)[C@H](N(C)C)C4)c3)[nH]c12` [compound 154], for which the IC50 was determined as 300 nM.

For `Cc1noc(CN)c1C(NC(=O)c1cc2cccc(C)c2[nH]1)C1CC1` (stereo not shown) [compound 602], the IC50 is above 25000 nM.

Regarding `Cc1nc([C@@H]2CCC[C@H](NC(=O)c3cc4c(F)ccc(C)c4[nH]3)C2)no1` [compound 1065], the IC50 is above 2000 nM.

On to `COC1(C)CCN(c2cccc(NC(=O)c3cc4c(F)ccc(C)c4[nH]3)c2)CC1` [compound 262], for which the IC50 is 700 nM.

Regarding `Cc1ccc(F)c2cc(C(=O)Nc3cc(C(F)F)cc(N4CCC(N(C)C)CC4)c3)[nH]c12` [compound 311], the IC50 came out at 1300 nM.

Take `Cc1ccc(F)c2cc(C(=O)N[C@@H]3CCC[C@H](N4CCN5C(=O)CCC[C@@H]5C4)C3)[nH]c12` [compound 1044]: the IC50 stood at 20 nM.

As to `CC(=O)N1CCC(C(N)=O)(c2cc(F)cc(NC(=O)c3cc4c(F)ccc(C)c4[nH]3)c2)CC1` [compound 267], the IC50 stood at 700 nM.

As for `Cc1ccc(F)c2cc(C(=O)Nc3cccc(N4CCN(C(=O)CC#N)CC4)c3)[nH]c12` [compound 170], the IC50 was 300 nM.

Take `Cc1ccc(F)c2cc(C(=O)Nc3cccc4c3cnn4C3CCN(C)CC3)[nH]c12` [compound 247]: the IC50 was found to be 600 nM.

As to `Cc1ccc(F)c2cc(C(=O)Nc3cccc(-c4cncn4C)c3)[nH]c12` [compound 197], the IC50 is 400 nM.

For `Cc1ccc(F)c2cc(C(=O)Nc3cc(F)cc(N4CCCN(C)C(=O)C4)c3)[nH]c12` [compound 183], the IC50 came out at 400 nM.

In the case of `CC(=O)N1CCC([C@H]2CCC[C@@H](NC(=O)c3cc4c(F)ccc(C)c4[nH]3)C2)CC1` [compound 1007], the IC50 turned out to be 20 nM.

`Cc1cccc2cc(C(=O)NCCc3ccccc3N3CCOCC3)[nH]c12` [compound 511]: the IC50 turned out to be 15800 nM.

As for `Cc1ccc(F)c2cc(C(=O)Nc3cccc(-c4cccnc4)c3)[nH]c12` [compound 137], the IC50 came out at 300 nM.

For the compound `Cc1cccnc1C(NC(=O)c1cc2ccnc(C)c2[nH]1)C1CC1` (stereo not shown) [compound 598], the IC50 was above 25000 nM.

For the next test, the target named is T1, SETD2(1434-1711) (Homo sapiens, UniProt Q9BYW2).
T1 construct: SETD2 (1434-1711) Assay; catalogue N/A
T1 sequence (Q9BYW2 1434-1711): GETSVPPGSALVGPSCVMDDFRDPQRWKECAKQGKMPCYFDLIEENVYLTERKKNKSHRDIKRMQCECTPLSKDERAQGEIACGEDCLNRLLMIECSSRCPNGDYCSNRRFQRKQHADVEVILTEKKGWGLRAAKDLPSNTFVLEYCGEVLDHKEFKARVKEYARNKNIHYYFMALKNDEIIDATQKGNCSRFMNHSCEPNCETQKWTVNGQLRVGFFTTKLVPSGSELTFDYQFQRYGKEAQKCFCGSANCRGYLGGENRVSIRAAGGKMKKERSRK
As to the kind of experiment: SETD2 (1434-1711) assay. Type of test: biochemical. Particulars: read-out: SETD2 (1434-1711).
On to `Cc1cccnc1C(NC(=O)c1cc2cccc(Cc3ccn[nH]3)c2[nH]1)C1CC1` (stereo not shown) [compound 618], for which the IC50 is above 200000 nM.

For the compound `CNC(=O)CCc1cccc(NC(=O)c2cc3c(F)ccc(C)c3[nH]2)c1` [compound 293], the IC50 is 400 nM.

`Cc1ccc(F)c2cc(C(=O)N[C@@H]3CCC[C@@H](N4CCC5(CC4)CNC(=O)N5)C3)[nH]c12` [compound 941]: the IC50 came to 1300 nM.

On to `CC(=O)N1CCN(C[C@@H]2CCC[C@H](NC(=O)c3cc4c(F)ccc(C)c4[nH]3)C2)CC1` [compound 1077], for which the IC50 was above 10000 nM.

Take `CC(=O)N1CCN([C@H]2CCC[C@@H](NC(=O)c3cc4c(F)ccc(C)c4[nH]3)C2)C2(CC2)C1` [compound 1024]: the IC50 was 50 nM.

`Cc1cc(C(=O)N2CCNCC2)ccc1C(NC(=O)c1cc2cccc(C)c2[nH]1)C1CC1` (stereo not shown) [compound 577]: the IC50 amounted to 21800 nM.

As for `CCN(CC)CCC(=O)N[C@H]1CC[C@H](NC(=O)c2cc3cccc(C)c3[nH]2)CC1` [compound 589], the IC50 is 43600 nM.

As for `Cc1ccc(F)c2cc(C(=O)N[C@@H]3CCC[C@H](N4CCN(C5CCOC5)CC4)C3)[nH]c12` (stereo partly shown) [compound 924], the IC50 worked out at 100 nM.

Turning to `Cc1ccc(F)c2cc(C(=O)Nc3cc(C#N)cc(N4CCC(N(C)C)CC4)c3)[nH]c12` [compound 345], the IC50 stood at 60 nM.

With `CC(=O)N1CCN([C@@H]2CCC[C@@H](NC(=O)c3cc4c(F)ccc(C)c4[nH]3)C2)C[C@H]1CO` [compound 1076], the IC50 worked out at 1400 nM.

`Cc1ccc(F)c2cc(C(=O)Nc3cccc(N4CCC(NCc5cnc[nH]5)CC4)c3)[nH]c12` [compound 433]: the IC50 came to 30 nM.

Regarding `Cc1ccc(F)c2cc(C(=O)Nc3cccc(N4C[C@@H](O)[C@H](N(C)C)C4)c3)[nH]c12` [compound 154], the IC50 came to 30 nM.

As to `Cc1noc(CN)c1C(NC(=O)c1cc2cccc(C)c2[nH]1)C1CC1` (stereo not shown) [compound 602], the IC50 is above 50000 nM.

For the compound `Cc1nc([C@@H]2CCC[C@H](NC(=O)c3cc4c(F)ccc(C)c4[nH]3)C2)no1` [compound 1065], the IC50 stood at 9100 nM.

As for `COC1(C)CCN(c2cccc(NC(=O)c3cc4c(F)ccc(C)c4[nH]3)c2)CC1` [compound 262], the IC50 is 200 nM.

For `Cc1ccc(F)c2cc(C(=O)Nc3cc(C(F)F)cc(N4CCC(N(C)C)CC4)c3)[nH]c12` [compound 311], the IC50 turned out to be 30 nM.

Regarding `Cc1ccc(F)c2cc(C(=O)N[C@@H]3CCC[C@H](N4CCN5C(=O)CCC[C@@H]5C4)C3)[nH]c12` [compound 1044], the IC50 came out at 20 nM.

On to `CC(=O)N1CCC(C(N)=O)(c2cc(F)cc(NC(=O)c3cc4c(F)ccc(C)c4[nH]3)c2)CC1` [compound 267], for which the IC50 was 10 nM.

As for `Cc1ccc(F)c2cc(C(=O)Nc3cccc(N4CCN(C(=O)CC#N)CC4)c3)[nH]c12` [compound 170], the IC50 came to 50 nM.

On to `Cc1ccc(F)c2cc(C(=O)Nc3cccc4c3cnn4C3CCN(C)CC3)[nH]c12` [compound 247], for which the IC50 came out at 50 nM.

On to `Cc1ccc(F)c2cc(C(=O)Nc3cccc(-c4cncn4C)c3)[nH]c12` [compound 197], for which the IC50 was found to be 100 nM.

With `Cc1ccc(F)c2cc(C(=O)Nc3cc(F)cc(N4CCCN(C)C(=O)C4)c3)[nH]c12` [compound 183], the IC50 is 90 nM.

On to `CC(=O)N1CCC([C@H]2CCC[C@@H](NC(=O)c3cc4c(F)ccc(C)c4[nH]3)C2)CC1` [compound 1007], for which the IC50 turned out to be 6 nM.

Take `Cc1cccc2cc(C(=O)NCCc3ccccc3N3CCOCC3)[nH]c12` [compound 511]: the IC50 worked out at 11600 nM.

For `Cc1ccc(F)c2cc(C(=O)Nc3cccc(-c4cccnc4)c3)[nH]c12` [compound 137], the IC50 stood at 50 nM.

Turning to `Cc1cccnc1C(NC(=O)c1cc2ccnc(C)c2[nH]1)C1CC1` (stereo not shown) [compound 598], the IC50 was above 50000 nM.
